{"source": "paper PMC2834277", "about": "(Nature structural & molecular biology, 2010)", "key": {"DmAgo2-MID [1]": {"target": "T1, DmAgo2-MID (Drosophila melanogaster, UniProt Q9VUQ5)", "T1 sequence (Q9VUQ5 740-884 limits assumed)": "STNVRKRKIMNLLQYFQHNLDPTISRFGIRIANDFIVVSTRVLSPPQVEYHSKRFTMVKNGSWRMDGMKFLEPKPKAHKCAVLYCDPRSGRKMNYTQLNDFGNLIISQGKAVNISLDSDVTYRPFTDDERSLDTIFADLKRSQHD", "assay": "resin pull-down, m7GTP-Sepharose", "assay_type": "binding", "conditions": "ligand immobilised on Sepharose; PBS, 5 mM MgCl2, 4 C"}, "CeRde1 MID domain": {"target": "T2, CeRde1 MID domain (Caenorhabditis elegans, UniProt G5EEH0)", "T2 sequence (G5EEH0 470-618 limits assumed)": "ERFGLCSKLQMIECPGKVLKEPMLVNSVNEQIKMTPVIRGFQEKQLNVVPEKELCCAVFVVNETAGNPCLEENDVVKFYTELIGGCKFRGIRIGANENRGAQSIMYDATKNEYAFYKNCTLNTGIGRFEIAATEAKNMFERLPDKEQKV", "assay": "resin pull-down, m7GTP-Sepharose", "assay_type": "binding", "conditions": "ligand immobilised on Sepharose; PBS, 5 mM MgCl2, 4 C"}, "PurR-C [2]": {"target": "T3, PurR-C (Escherichia coli, UniProt P0ACP7)", "T3 sequence (P0ACP7 60-341 limits assumed)": "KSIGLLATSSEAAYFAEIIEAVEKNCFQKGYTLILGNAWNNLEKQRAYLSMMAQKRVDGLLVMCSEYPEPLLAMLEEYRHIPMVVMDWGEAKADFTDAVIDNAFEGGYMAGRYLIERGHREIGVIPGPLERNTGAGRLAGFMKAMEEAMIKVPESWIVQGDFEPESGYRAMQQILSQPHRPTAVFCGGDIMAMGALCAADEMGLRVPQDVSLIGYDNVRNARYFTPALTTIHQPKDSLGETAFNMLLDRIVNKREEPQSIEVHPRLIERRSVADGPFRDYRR", "assay": "resin pull-down, m7GTP-Sepharose", "assay_type": "binding", "conditions": "ligand immobilised on Sepharose; PBS, 5 mM MgCl2, 4 C"}, "DmAgo1-MID": {"target": "DmAgo1-MID (Drosophila melanogaster, UniProt A1Z9J5)", "sequence (A1Z9J5 538-665)": "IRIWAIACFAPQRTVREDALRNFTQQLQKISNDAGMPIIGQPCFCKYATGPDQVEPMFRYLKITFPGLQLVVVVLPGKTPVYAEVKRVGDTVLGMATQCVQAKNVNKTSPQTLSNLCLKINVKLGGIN", "assay": "resin pull-down, m7GTP-Sepharose", "assay_type": "binding", "conditions": "ligand immobilised on Sepharose; PBS, 5 mM MgCl2, 4 C"}, "CeAlg1-MID": {"target": "CeAlg1-MID (Caenorhabditis elegans, UniProt G5EGR6)", "sequence (G5EGR6 540-686 limits assumed)": "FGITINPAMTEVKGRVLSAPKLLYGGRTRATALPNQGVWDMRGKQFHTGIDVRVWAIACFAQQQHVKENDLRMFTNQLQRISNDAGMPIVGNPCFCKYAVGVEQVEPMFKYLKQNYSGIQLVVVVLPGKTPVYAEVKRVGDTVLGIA", "assay": "resin pull-down, m7GTP-Sepharose", "assay_type": "binding", "conditions": "ligand immobilised on Sepharose; PBS, 5 mM MgCl2, 4 C"}, "DmeIF4E": {"target": "T4, DmeIF4E (Drosophila melanogaster, UniProt P48598)", "T4 sequence (P48598 1-259)": "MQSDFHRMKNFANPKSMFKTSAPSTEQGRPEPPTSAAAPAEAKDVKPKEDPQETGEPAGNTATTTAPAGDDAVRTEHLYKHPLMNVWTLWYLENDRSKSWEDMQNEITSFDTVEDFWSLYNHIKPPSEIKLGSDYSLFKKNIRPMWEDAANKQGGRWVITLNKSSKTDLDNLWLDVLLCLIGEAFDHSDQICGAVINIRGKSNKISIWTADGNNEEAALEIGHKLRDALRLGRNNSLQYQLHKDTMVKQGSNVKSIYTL", "assay": "resin pull-down, m7GTP-Sepharose", "assay_type": "binding", "conditions": "ligand immobilised on Sepharose; PBS, 5 mM MgCl2, 4 C"}, "DmAgo2ΔQ [3]": {"target": "T5, DmAgo2ΔQ (Drosophila melanogaster, UniProt Q9VUQ5)", "T5 sequence (Q9VUQ5 400-1214 limits assumed)": "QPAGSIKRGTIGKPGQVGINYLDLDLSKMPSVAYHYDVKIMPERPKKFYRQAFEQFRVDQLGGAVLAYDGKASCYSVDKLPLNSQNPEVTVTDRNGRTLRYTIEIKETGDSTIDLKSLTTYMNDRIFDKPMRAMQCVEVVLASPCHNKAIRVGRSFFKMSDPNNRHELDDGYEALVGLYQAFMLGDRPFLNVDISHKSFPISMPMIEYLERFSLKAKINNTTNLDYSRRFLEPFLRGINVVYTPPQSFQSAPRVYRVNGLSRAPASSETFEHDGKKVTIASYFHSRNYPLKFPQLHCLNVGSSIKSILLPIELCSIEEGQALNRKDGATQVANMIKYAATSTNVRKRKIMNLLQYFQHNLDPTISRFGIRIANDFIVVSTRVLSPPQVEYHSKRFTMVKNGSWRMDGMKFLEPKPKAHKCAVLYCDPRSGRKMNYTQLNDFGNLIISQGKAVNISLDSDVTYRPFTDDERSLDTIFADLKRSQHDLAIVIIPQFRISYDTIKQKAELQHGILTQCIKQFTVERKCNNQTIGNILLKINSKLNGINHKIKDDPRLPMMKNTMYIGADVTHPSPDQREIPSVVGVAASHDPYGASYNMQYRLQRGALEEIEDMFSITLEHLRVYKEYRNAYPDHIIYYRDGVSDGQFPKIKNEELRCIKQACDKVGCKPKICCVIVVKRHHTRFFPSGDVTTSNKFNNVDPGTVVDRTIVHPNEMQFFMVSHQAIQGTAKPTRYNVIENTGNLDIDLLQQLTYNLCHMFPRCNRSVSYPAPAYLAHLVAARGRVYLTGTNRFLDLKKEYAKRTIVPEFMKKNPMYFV", "assay": "resin pull-down, GTP-Sepharose", "assay_type": "binding", "conditions": "ligand immobilised on Sepharose; competed by miRNA; PBS, MgCl2, 4 C"}, "PurR-C [4]": {"target": "T3, PurR-C", "assay": "Sepharose resin pull-down, competition with free nucleotide", "assay_type": "binding", "conditions": "500 uM nucleotide, PBS, 5 mM MgCl2, 4 C; data not shown"}, "DmAgo2-MID [5]": {"target": "T1, DmAgo2-MID", "assay": "m7GTP-Sepharose pull-down, competition with free nucleotide", "assay_type": "binding", "conditions": "500 uM GTP, PBS, 5 mM MgCl2, 4 C; competitive"}, "DmAgo2ΔQ [6]": {"target": "T5, DmAgo2ΔQ", "assay": "filter binding, competition with […]-bantam miRNA", "conditions": "PBS, 5 mM MgCl2, room temperature; 5'-end miRNA site; high concentrations"}}, "data": [{"smiles": "C[n+]1cn([C@@H]2O[C@H](COP(=O)(O)OP(=O)(O)OP(=O)(O)O)[C@@H](O)[C@H]2O)c2nc(N)[nH]c(=O)c21", "note": "[m^7GTP]", "values": [{"measurement": "resin pull-down, m7GTP-Sepharose", "setting": "DmAgo2-MID [1]", "result": "All of the MID domains [...] were able to bind to both resins"}, {"measurement": "resin pull-down, m7GTP-Sepharose", "setting": "CeRde1 MID domain", "result": "All of the MID domains [...] were able to bind to both resins"}, {"measurement": "resin pull-down, m7GTP-Sepharose", "setting": "PurR-C [2]", "result": "as well as the ligand-binding domain of PurR, were able to bind to both resins"}, {"measurement": "resin pull-down, m7GTP-Sepharose", "setting": "DmAgo1-MID", "result": "miRNA-related Argonautes (DmAgo1, CeAlg1) consistently bound more effectively to m^7GTP-Sepharose"}, {"measurement": "resin pull-down, m7GTP-Sepharose", "setting": "CeAlg1-MID", "result": "miRNA-related Argonautes (DmAgo1, CeAlg1) consistently bound more effectively to m^7GTP-Sepharose"}, {"measurement": "resin pull-down, m7GTP-Sepharose", "setting": "DmeIF4E", "result": "the binding of DmeIF4E to m^7GTP-Sepharose was highly efficient"}]}, {"smiles": "Nc1nc2c(ncn2[C@@H]2O[C@H](COP(=O)(O)OP(=O)(O)OP(=O)(O)O)[C@@H](O)[C@H]2O)c(=O)[nH]1", "note": "[GTP]", "values": [{"measurement": "resin pull-down, GTP-Sepharose", "setting": "DmAgo2ΔQ [3]", "result": "DmAgo2ΔQ binds poorly to m^7GTP, and better to GTP- and GMP-Sepharose"}, {"measurement": "Sepharose resin pull-down, competition with free nucleotide", "setting": "PurR-C [4]", "result": "PurR binding to each resin was easily competed by both GTP and m^7GpppG"}, {"measurement": "m7GTP-Sepharose pull-down, competition with free nucleotide", "setting": "DmAgo2-MID [5]", "result": "DmAgo2-MID binding was also readily competed by GTP"}]}, {"smiles": "Nc1nc2c(ncn2[C@@H]2O[C@H](COP(=O)(O)O)[C@@H](O)[C@H]2O)c(=O)[nH]1", "note": "[GMP]", "values": [{"measurement": "filter binding, competition with 32P-bantam miRNA", "setting": "DmAgo2ΔQ [6]", "result": "allosteric behavior was not observed for DmAgo2ΔQ, though GMP could compete at high concentrations"}]}, {"smiles": "C[n+]1cn([C@@H]2O[C@H](COP(=O)(O)OP(=O)(O)OP(=O)(O)OC[C@H]3O[C@@H](n4cnc5c(=O)[nH]c(N)nc54)[C@H](O)[C@@H]3O)[C@@H](O)[C@H]2O)c2nc(N)[nH]c(=O)c21", "note": "[m^7GpppG]", "values": [{"measurement": "Sepharose resin pull-down, competition with free nucleotide", "setting": "PurR-C [4]", "result": "PurR binding to each resin was easily competed by both GTP and m^7GpppG"}]}]}
